# In patent publication US20170252433A1, “PSMA-RELATED THERAPIES” (Memorial Sloan Kettering Cancer Center, priority 2014, published 2017):
# Columns and labels:
# [1] = system: PSMA-expressing prostate cancer cells (LNCaP-wt, PC3-hPSMA) and PC3-wt; assay: Cytoplasmic calcium quantification (Fluo4 assay); type: cell-based, human
# Procedure: Cells were seeded at a density of 10,000 per well on a 96-well plate and grown overnight. Loading of the calcium-sensing dye Fluo4 (Life Technologies, Calrsbad, Calif.) was performed according to the manufacturer's instructions. Where indicated the cells were treated with thapsigargin (1 μM, Tocris, Minneapolis, Minn.), L-Quisqualic acid (110 μM, Tocris), 3,5-DHPG (0.67 mM, Tocris), L-AP3 (125 μM, Tocris), U73122 (50 μM, Tocris), and 2-PMPA (100 μM, Tocris) immediately before measuring calcium levels, with a SpectraMax M5 plate reader (Molecular Devices, Sunnyvale, Calif.).
# The effect of PSMA expression on calcium homeostasis in prostate cancer cell lines was evaluated using the fluorimetric Fluo4 assay kit (Invitrogen), according to the supplier's instructions. The plate was excited at 490 nm, and fluorescence emission was monitored at 520 nm with the SpectraMax M5 plate reader (Molecular Devices). […] To examine calcium accumulation in the cytoplasm, the cells were treated with thapsigargin (1 μM, Tocris) immediately prior to taking measurements with the plate reader. […] Furthermore, we investigated whether PSMA facilitates calcium signaling via the mGluR Group I receptors through its enzymatic activity. The cells were treated with either L-Quisqualic acid (110 μM; mGluR I agonist, Tocris), L-AP3 (125 μM; mGluR I antagonist, Tocris) or a PSMA inhibitor (100 μM, Tocris), immediately prior to taking calcium measurements.
# LNCaP-wt cells [2] = assay: Human phospho-kinase array (kinome profiling); type: cell-based; conditions: 48 h, 5 μM, FIG. 4a
# Procedure: CAMKK2, AMPKα and AKT antibodies were purchased from Cell Signaling (Danvers, Mass.). Cells were grown to confluence and treated with 2-PMPA (5 μM, Tocris) for 48 h. The phosphorylation status of proteins of interest was determined with an isoelectric-focusing instrument (NanoPro1000, Protein Simple, Santa Clara, Calif.), where the samples were prepared and analyzed according to the supplier's guidelines. Determination of site-specific phosphorylation of key proteins was performed with a human phosphor-kinase array (ARY003, R&D Systems, Minneapolis, Minn.), according to the product's instructions.
# Considering that PSMA inhibition affected the phosphorylation of some key kinases, a human kinome-profiling array from R&D Systems was utilized to obtain a wider view of other kinases being regulated by this protein. LNCaP-wt cells were grown in the presence of a PSMA inhibitor (48 h, 5 μM) and PC3-PSMA cells were grown under puromycin-induced selection. Control cells included LNCaP-wt and PC3-wt cells grown for 48 h in complete RPMI media. The cells were lysed and processed according to the array's protocol, and the array was performed according to its supplier's guideline. Imaging of the array's membranes was performed after film exposure in the presence of a chemiluniescent substrate and HRP-conjugated detecting antibodies, processed in a dark room.
# LNCaP-wt cells [3] = assay: Androgen receptor pathway output: secreted PSA (DELFIA PSA assay); type: cell-based, human; conditions: 5 μM, 48 h
# Procedure: Gene expression array was performed after TRIzol-based RNA extraction on an U133A 2.0 gene array (Affymetrix, Santa Clara, Calif.). The output of the androgen receptor (AR) pathway was assessed by measuring the levels of prostate specific antigen (PSA). LNCaP cells that have a functional AR pathway were obtained from ATCC (Manassas, Va.) and grown to confluence. Then they were treated for 48 h with 2-PMPA (5 μM) for 48 h, followed by screening of the culture medium for secreted PSA with the DELFIA PSA assay (Perkin Elmer, Waltham, Mass.). The levels of nitric oxide attributed to nitric oxide synthase's activity and the concentration of total secreted prostaglandins were quantified with the corresponding kits purchased from Cayman Chemicals (Ann Arbor, Mich.). Alterations in energy production due to signaling changes were determined through quantification of the intracellular NAD+ and ATP lelels, using the NAD assay from Cayman Chemicals (Ann Arbor, Mich.) and the StayBrite ATP kit from Biovision (Milpitas, Calif.).
# Since PSMA regulates Akt phosphorylation, it was investigated whether inhibition of PSMA and subsequent downregulation of Akt activity affected the status of the androgen receptor (AR) pathway. […]
# LNCaP and PC3-PSMA cells = assay: Total secreted prostaglandins; type: cell-based, human; conditions: 5 μM, 48 h, FIG. 5c-d
# Text: LNCaP cells that have a functional AR pathway were obtained from ATCC (Manassas, Va.) and grown to confluence. […] The levels of nitric oxide attributed to nitric oxide synthase's activity and the concentration of total secreted prostaglandins were quantified with the corresponding kits purchased from Cayman Chemicals (Ann Arbor, Mich.).
# Furthermore, it was examined whether PSMA inhibition affects the activity of nitric oxide synthase and the levels of prostaglandins, since both Akt and Ca+2 regulate these processes. The activity of nitric oxide synthase was assessed by quantifying the sample's total nitrate levels with a kit from Cayman Chemicals, whereas the levels of total prostaglandins secreted in the cell's medium were measured with the total prostaglandin kit from Cayman Chemicals. Inhibition of PSMA was performed with a PSMA inhibitor (5 μM) at 48 h at 37° C., 5% CO2.
# [4] = system: PSMA-expressing (LNCaP-PSMA+ve) and PSMA-negative (LNCaP-PSMA-ve) cells; assay: Cell viability with ROS-generating drug Elesclomol (Alamar Blue); type: cell-based, human; conditions: 2-PMPA 250 nM, 48 h; Elesclomol 250 nM; FIG. 8 C and D
# Procedure: Cell viability of (A) PSMA-expressing (LNCaP-PSMA+ve) and (B) PSMA-negative cells (LNCaP-PSMA-ve where PSMA expression was knocked down with shRNA) was determined via the fluorescence-based Alamar Blue method (λex=565 nm and λem=585 nm). Cell viability was assessed 48 h after drug administration with either vehicle (DMSO) or the ROS-generating drug Elesclomol (250 nM, Selleck Chemicals). […] The cells were treated for 48 h, and cell viability was determined with the Alamar Blue method.
smiles,measurement,setting,value
O=C(O)CCC(CP(=O)(O)O)C(=O)O (stereo not shown) [2-PMPA],cytoplasmic calcium levels,"[1]; PSMA inhibition compared with Phospholipase C inhibitor U73122 50 μM, FIG. 1d",reduction in calcium levels
same,cytoplasmic calcium levels,"[1]; PSMA-expressing cells, PSMA inhibitor 100 μM, L-AP3 125 μM, FIG. 1c",lowered calcium levels
same,"phosphorylation of many proteins including TOR, p27, and Src",LNCaP-wt cells [2],decreased
same,PSA mRNA levels,LNCaP-wt cells [3],did not affect PSA's mRNA levels
same,PSA levels in culturing medium,LNCaP-wt cells [3]; FIG. 5a,increased PSA levels
same,total levels of secreted prostaglandins,LNCaP and PC3-PSMA cells,decreased
same,resistance to ROS-generating drug (cell viability),[4],abrogates drug resistance and renders the cells susceptible to cell death
